Assay: Solubility of phthalonitrile monomers in common organic solvents
Format: physicochemical
Design: key: “+” represents “soluble”

Measured: Solubility

N#Cc1ccc(Oc2cccc(OB(Oc3cccc(Oc4ccc(C#N)c(C#N)c4)c3)Oc3cccc(Oc4ccc(C#N)c(C#N)c4)c3)c2)cc1C#N [Example 3]
+: DMF | DMSO | NMP | THF | acetone

N#Cc1ccc(Oc2cccc(OB(Oc3cccc(Oc4ccc(C#N)c(C#N)c4)c3)c3ccccc3)c2)cc1C#N [Example 4]
+: DMF | DMSO | NMP | THF | acetone

Reference: patent US12195596B2, “Hyperbranched boric acid modified phthalonitrile monomer as well as preparation method and use thereof” (priority 2021, dated 2025)
